Where two headings read alike, the source gives them in different places.
Experiments:
KRAS-G12V = KRAS-G12V (Homo sapiens, UniProt P01116, G12V); experiment: SOS-catalyzed nucleotide exchange assay (Procedure A, TR-FRET), KRAS-G12V; format: biochemical; settings: nucleotide exchange, read-out: KRAS G12V GNE IC50
Method in brief: (§1)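 Biotinylated RAS (KRAS-G12C carries C51S/C80L/C118S; others WT background) preloaded with Bodipy-GDP plus Tb-streptavidin, preincubated with compound 60 min at RT, then human SOS and 3 mM GTP added. Final RAS/SOS: G12C 3 nM/40 nM, 60 min; WT 1 nM/40 nM, 60 min; G12V 1.25 nM/160 nM, 90 min; NRAS 1.25 nM/40 nM, 60 min. TR-FRET 520/495 ratio normalized to DMSO and saturating inhibitor; 10-point curves fit four-parameter logistic.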

AsPC-1 cells = experiment: Cellular phospho-ERK assay, AsPC-1 cells (homozygous KRAS-G12D); format: cell-based; settings: Homo sapiens, ASPC1, 2 h, read-out: AsPC1 pERK IC50
Method in brief: (§2)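 10k–15k cells/well, o/n attach; cpd 2 h, 37 °C, 10-pt 1:3 from 30 μM final; lyse with protease/phosphatase inhibitors 30 min RT; multiplex SureFire p-ERK + total ERK; IC50 via 4PL on ratio.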

SW620 cells = experiment: Cellular phospho-ERK assay, SW620 cells (homozygous KRAS-G12V); format: cell-based; settings: Homo sapiens, read-out: SW620 pERK IC50
Method in brief: as §2

KRAS-G12D = KRAS-G12D (Homo sapiens, UniProt P01116, G12D); experiment: SOS-catalyzed nucleotide exchange assay (Procedure A, TR-FRET), KRAS-G12D; format: biochemical; settings: nucleotide exchange, read-out: KRAS G12D GNE IC50
Sequence of KRAS-G12D (P01116 with tags, fused parts or gaps isoform P01116-2 G12D): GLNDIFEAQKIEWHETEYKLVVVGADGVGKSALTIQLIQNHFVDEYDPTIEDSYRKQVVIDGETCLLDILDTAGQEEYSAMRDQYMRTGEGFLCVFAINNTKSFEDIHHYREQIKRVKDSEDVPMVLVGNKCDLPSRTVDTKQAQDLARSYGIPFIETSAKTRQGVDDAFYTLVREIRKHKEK
Method in brief: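 Signal ratio (520/495 nm, excitation 340 nm) reports Bodipy-GDP retention on biotinylated RAS after SOS-catalyzed exchange with 3 mM GTP. SOS was 40 nM, except 160 nM for G12V. Room-temperature exchange lasted 60 min (90 min for G12V), following a 60 min compound preincubation.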

KRAS-WT = KRAS-WT (Homo sapiens, UniProt P01116); experiment: SOS-catalyzed nucleotide exchange assay (Procedure A, TR-FRET), KRAS-WT; format: biochemical; settings: nucleotide exchange, read-out: KRAS WT GNE IC50
Sequence of KRAS-WT (P01116 with tags, fused parts or gaps isoform P01116-2): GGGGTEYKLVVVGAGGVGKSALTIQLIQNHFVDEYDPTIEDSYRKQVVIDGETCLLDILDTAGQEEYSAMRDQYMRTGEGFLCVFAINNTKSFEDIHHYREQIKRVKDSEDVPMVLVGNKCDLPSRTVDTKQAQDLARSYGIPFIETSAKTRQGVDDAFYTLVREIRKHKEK
Method in brief: as §1

MKN-1 cells = experiment: Cellular phospho-ERK assay, MKN-1 cells (amplified wild-type KRAS); format: cell-based; settings: Homo sapiens, read-out: MKN1 pERK IC50
Method in brief: as §2

[1] = amplified wild-type KRAS, 2 hours
[2] = SW-620, 2 hours compound incubation

Sequence of KRAS-G12V (P01116 with tags, fused parts or gaps isoform P01116-2 G12V): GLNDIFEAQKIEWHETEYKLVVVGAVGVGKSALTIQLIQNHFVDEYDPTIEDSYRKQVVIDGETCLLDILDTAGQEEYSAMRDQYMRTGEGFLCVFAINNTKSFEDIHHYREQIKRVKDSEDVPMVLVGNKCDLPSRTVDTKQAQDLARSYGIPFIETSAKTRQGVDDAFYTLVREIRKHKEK

SMILES	IC50 (KRAS-G12V) [nM]	IC50 (KRAS-G12D) [nM]	IC50 (KRAS-WT) [nM]	IC50 (AsPC-1 cells; 2 hours compound incubation) [nM]	IC50 (SW620 cells; [2]) [nM]	IC50 (MKN-1 cells; 2 hours compound incubation) [nM]	IC50 (AsPC-1 cells; KRAS-G12D, 2 hours) [nM]	IC50 (SW620 cells; SW-620, KRAS-G12V, 2 hours) [nM]	IC50 (MKN-1 cells; [1]) [nM]
CN1CCC[C@H]1COc1nc(N2CCOC[C@@](C)(O)C2)c2c(n1)sc1c(-c3c(C4CC4)c(Cl)cc4[nH]ncc34)nccc12 [Ex-80, (6S)-4-(8-(6-chloro-5-cyclopropyl-1H-indazol-4-yl)-2-(((S)-1-methylpyrrolidin-2-yl)methoxy)pyrido[4′,3′:4,5]thi-eno[2,3-d]pyrimidin-4-yl)-6-methy1-1,4-oxazepan-6-ol]	42	32.7	89	–	–	–	200	131	143
Cc1cc2[nH]ncc2c(-c2nccc3c2sc2nc(OC[C@@]45CCCN4C[C@H](F)C5)nc(N4CCOC[C@@](C)(O)C4)c23)c1C1CC1(F)F (stereo partly drawn) [Ex-63, (6S)-4-(8-(5-(2,2-difluorocyclopropyl)-6-methyl-1H-indazol-4-yl)-2-(((2R,7aS)-2-fluorotetrahydro-1H-pyrrolizin-7a(5H)-yl)methoxy)pyrido[4′,3′:4,5]thi-eno[2,3-d]pyrimidin-4-yl)-6-methyl-1,4-oxazepan-6-ol]	39.3	19.6	55.2	–	–	–	185	121	114
C[C@@]1(O)COCCN(c2nc(OC[C@@]34CCCN3C[C@H](F)C4)nc3sc4c(-c5c6c(cc7[nH]ncc57)CCC65CC5)nccc4c23)C1 [Ex-88, (6S)-4-(8-(6,7-dihydro-1H-spiro[cyclopenta[f]indazole-5,1′-cyclopropan]-4-yl)-2-(((2R,7aS)-2-fluorotetrahydro-1H-pyrrolizin-7a(5H)-yl)methoxy)pyrido[4′,3′:4,5]thi-eno[2,3-d]pyrimidin-4-yl)-6-methyl-1,4-oxazepan-6-ol]	42.5	18.5	37.2	–	–	–	159	36.1	122
C[C@@]1(O)COCCN(c2nc(OC[C@@]34CCCN3C[C@H](F)C4)nc3sc4c(-c5c6cn[nH]c6cc6ccc(F)c(Cl)c56)nccc4c23)C1 [Ex-162]	47.5	19.8	43.6	133	48	106	–	–	–
Cn1c2nc(OC[C@@]34CCCN3C[C@H](F)C4)nc(N3CCOC[C@@](C)(O)C3)c2c2ccnc(-c3c(C4(F)CC4)c(Cl)cc4[nH]ncc34)c21 (single isomer, unassigned) [Ex-3]	15.3	10.5	17.2	–	–	–	207	95.5	134
CCC1(F)c2c(cc3[nH]ncc3c2-c2nccc3c2sc2nc(OC[C@@]45CCCN4C[C@H](F)C5)nc(N4CCOC[C@@](C)(O)C4)c23)CC1(F)F (stereo partly drawn) [Ex-98, (6S)-4-(8-(5-ethy1-5,6,6-trifluoro-1,5,6,7-tetrahydrocyclopenta[f]in-dazol-4-yl)-2-(((2R,7aS)-2-fluorotetrahydro-1H-pyrrolizin-7a(5H)-yl)methoxy)pyrido[4′,3′:4,5]thi-eno[2,3-d]pyrimidin-4-yl)-6-methyl-1,4-oxazepan-6-ol]	20.8	18.9	61.3	–	–	–	175	68.8	72.8
C=C1CCCc2cc3[nH]ncc3c(-c3nccc4c3sc3nc(OC[C@@]56CCCN5C[C@H](F)C6)nc(N5CCOC[C@@](C)(O)C5)c34)c21 [Ex-115, (6S)-4-(2-(((2R,7aS)-2-fluorotetrahydro-1H-pyrrolizin-7a(5H)-yl)methoxy)-8-(5-methylene-5,6,7,8-tetrahydro-1H-benzo[f]indazol-4-yl)pyrido[4′,3′:4,5]thieno [2,3-d]pyrimidin-4-yl)-6-methyl-1,4-oxazepan-6-ol]	13.2	3.98	10.8	–	–	–	46.6	18.9	24.6
CC(C)(C)c1c(Cl)cc2[nH]ncc2c1-c1nccc2c1sc1nc(OC[C@@]34CCCN3C[C@H](F)C4)nc(N3CCOC[C@@](C)(O)C3)c12 [Ex-156, (6S)-4-(8-(5-(tert-butyl)-6-chloro-1H-indazol-4-yl)-2-(((2R,7aS)-2-fluorotetrahydro-1H-pyrrolizin-7a(5H)-yl)methoxy)pyrido[4′,3′:4,5]thieno[2,3-d]pyrimidin-4-yl)-6-methyl-1,4-oxazepan-6-ol]	16.7	5.21	18.9	76.1	45.2	113	–	–	–

Further lines, with some results ahead:

IC50 (KRAS-G12V) [nM]	IC50 (KRAS-G12D) [nM]	IC50 (KRAS-WT) [nM]	IC50 (AsPC-1 cells; 2 hours compound incubation) [nM]	IC50 (SW620 cells; [2]) [nM]	IC50 (MKN-1 cells; 2 hours compound incubation) [nM]	SMILES	IC50 (AsPC-1 cells; KRAS-G12D, 2 hours) [nM]	IC50 (SW620 cells; SW-620, KRAS-G12V, 2 hours) [nM]	IC50 (MKN-1 cells; [1]) [nM]
11.4	1.85	8.2	54.5	29.4	33.7	C[C@@]1(O)COCCN(c2nc(OC[C@]3(CN4CCC4)CC3(F)F)nc3sc4c(-c5c(C6(F)CC6)c(Cl)cc6[nH]ncc56)nccc4c23)C1 [Ex-239, (6S)-4-(2-(((R)-1-(azetidin-1-ylmethyl)-2,2-difluorocyclopropyl)methoxy)-8-(6-chloro-5-(1-fluorocyclopropyl)-1H-indazol-4-yl)pyrido[4′,3:′4,5]thieno[2,3-d]pyrimidin-4-yl)-6-methyl-1,4-oxazepan-6-ol]	–	–	–
21.2	5.55	22.8	175	79.4	80.7	C[C@@]1(O)COCCN(c2nc(OC[C@@]34CCN3C[C@H](F)C4)nc3sc4c(-c5c(C6CC6)c(Cl)cc6[nH]ncc56)nccc4c23)C1 (single isomer, unassigned) [Ex-221]	–	–	–
13.1	3.46	8.85	47.7	10.9	46.9	CN1CCC[C@@]2(COc3nc(N4CCOC[C@@](C)(O)C4)c4c(n3)sc3c(-c5c(C6CC6)c(Cl)cc6[nH]ncc56)nccc34)CCC[C@@H]12 [Ex-217, (6S)-4-(8-(6-chloro-5-cyclopropyl-1H-indazol-4-yl)-2-(((4aS,7aR)-1-meth-yloctahydro-4aH-cyclopenta[b]pyridin-4a-yl)meth-oxy)pyrido[4′,3′:4,5]thieno[2,3-d]pyrimi-din-4-yl)-6-methyl-1,4-oxazepan-6-ol]	–	–	–
243	62.8	498	136	107	171	CC1(O)COCCN(c2nc(OCC3(CN4CC5C(F)C5C4)CC3(F)F)nc3sc4c(-c5c(C6CC6)c(Cl)cc6[nH]ncc56)nccc4c23)C1 [Ex-214, (6S)-4-(8-(6-chloro-5-cyclopropyl-1H-indazol-4-yl)-2-(((R)-2,2-difluoro-1-(((1R,5S,6R)-6-fluoro-3-azabicyclo [3.1.0]hexan-3-yl)-methyl)cycloprop-yl)methoxy)pyrido [4′,3′:4,5]thieno[2,3-d]pyrimidin-4-yl)-6-methyl-1,4-oxaze-pan-6-ol]	–	–	–
66.3	82.1	186	856	278	324	C#C[C@@H]1CCCc2cc3[nH]ncc3c(-c3nccc4c3sc3nc(OC[C@@]56CCCN5C[C@H](F)C6)nc(N5CCOC[C@@](C)(O)C5)c34)c21 [Ex-175]	–	–	–

Reference: US20260176289A1, “SMALL MOLECULE INHIBITORS OF KRAS PROTEINS” (Merck Sharp & Dohme LLC, priority 2022, published 2026)
